The text below walks through data of article PMC8042380, “Brusatol Derivative–34 Attenuates Allergic Airway Inflammation Via Inhibition of the Spleen Tyrosine Kinase Pathway” (Frontiers in Pharmacology, 2021).

This experiment deals with Spleen tyrosine kinase (Syk) (Homo sapiens, UniProt P43405). Put plainly: ADP-Glo kinase assay with purified active Syk (Promega Syk Kinase Enzyme System V3801), Poly E4Y1 substrate, ATP. Format: biochemical. A general note: ADP-Glo first removes unused ATP, then detects ADP through luciferase.

Usually IC50 stands for the point on the concentration scale where inhibition reaches its midpoint. `COC(=O)[C@@]12OC[C@@]34C(CC5C(C)=C(OC(=O)CCC(=O)OCCCCOc6no[n+]([O-])c6S(=O)(=O)c6ccccc6)C(=O)C[C@]5(C)C3[C@@H](O)[C@@H]1O)OC(=O)[C@H](OC(=O)C=C(C)C)C42` (stereo partly shown) [Bru-34, Brusatol derivative-34]: the concentration for half-maximal inhibition (IC50) was 540 nM.
